Laboratory results taken from PMC12217109, “Development of novel benzamide class I selective lysine deacetylase inhibitors as potent anticancer agents” (Journal of Enzyme Inhibition and Medicinal Chemistry, 2025).

What was measured:
[1] = test system: MCF7 breast cancer cell line; assay: MTT cellular viability assay, MCF7; assay type: cell-based; conditions: Homo sapiens, 96 h
Experimental: The human A2780 ovarian (#93112519) and MCF-7 breast (#86012803) cancer cell lines were obtained from the European Cell Culture Collection (ECACC; Salisbury, UK). The human cardiac ventricular AC16 cell line (#SCC109) was obtained from Merck/Millipore (UK). The A2780 and MCF-7 cell lines were maintained in RPMI-1640 medium and the AC16 cell line was maintained in DMEM/F12 medium. Culture medium of all three cell lines was supplemented with 10% heat-inactivated foetal bovine serum (FBS) and 2 mM L-glutamine, with the cells maintained in a humidified 5% CO2 atmosphere at 37 °C. The media was changed every 72h and the cells passaged via trypsinisation (Trypsin EDTA, 0.25%) before reaching confluency.
Cytotoxicity of each compound against the cell lines was assessed using the MTT assay. Cells were seeded in three replicates into 96-well plates at a density of 2 × 10^3/well for 24h to facilitate cell attachment. Media was replaced with that containing either test compound (0–10µM) for A2780 and MCF7 cell lines, single concentration (10 µM) test compound for AC16 cell line, or drug vehicle (dimethyl sulphoxide; DMSO) and the cells incubated for a further 96 h at 37 °C in a humidified 5% CO2 atmosphere. […] Chemosensitivity was thereafter assessed using a standard 3-[4, 5-dimethylthiazolyl]-2,5-diphenyltetrazolium bromide (MTT) assay, with the optical density determined at 540 nm as an indicator of cellular viability.

[2] = test system: HeLa nuclear KDACs; set-up: method as in Beckers et al.[46]; conditions: ref Beckers et al.[46]; read-out: HDAC Inhibition IC50; cited from earlier work
[3] = target: HDAC11 (Homo sapiens, UniProt Q96DB2); set-up: method as in PMID 32608981; conditions: read-out: HDAC11 IC50; compiled data, ref [13]; cited from earlier work
Chain of HDAC11 (Q96DB2 whole entry): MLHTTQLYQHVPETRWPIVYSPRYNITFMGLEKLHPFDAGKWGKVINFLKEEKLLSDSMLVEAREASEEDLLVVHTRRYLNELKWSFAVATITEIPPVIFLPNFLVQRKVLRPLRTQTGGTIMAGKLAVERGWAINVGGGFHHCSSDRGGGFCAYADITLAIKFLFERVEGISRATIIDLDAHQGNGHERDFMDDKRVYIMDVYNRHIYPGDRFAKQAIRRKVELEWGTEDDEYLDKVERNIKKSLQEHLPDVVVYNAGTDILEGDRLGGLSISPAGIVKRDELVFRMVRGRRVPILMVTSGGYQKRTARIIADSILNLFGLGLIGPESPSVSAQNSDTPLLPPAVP

[4] = test system: class I HDACs; set-up: method as in PMID 31938461; conditions: ref [91]; cited from earlier work

SMILES | IC50 [1] [µM] | IC50 [2] [µM] | IC50 [3] [µM] | IC50 [4] [µM]
CC(=O)Nc1ccc(C(=O)Nc2ccccc2N)cc1 [Compound 2, Tacedinaline] | 11.6 ± 1.1 | 8.5 ± 5.4 | > 10 | 
Nc1cc(F)ccc1NC(=O)c1ccc(CNC(=O)/C=C/c2cccnc2)cc1 [chidamide] |  |  |  | 0.11 to 0.33
